Values after ≈ are worked out from the molar mass of the structure shown.
Key:
[1] = biological target: T1, G-protein coupled receptor 84 (Homo sapiens, UniProt Q9NQS5); assay: Agonist activity at GPR84 (unknown origin) expressed in HTLA cells assessed as beta-arrestin recruitment incubated for 1 day by PRESTO-Tango assay
[2] = biological target: T1, G-protein coupled receptor 84; assay: Agonist activity at GPR84 (unknown origin) expressed in doxycycline induced Flp-In-T-REx-293 cells transfected with GalphaI preincubated for 15 mins in presence of IBMX followed by forskolin stimulation for 45 mins by time-resolved fluorescence assay
[3] = biological target: T1, G-protein coupled receptor 84; assay: Agonist activity at GPR84 (unknown origin) expressed in Flp-In-T-REx-293 cells transfected with GalphaI incubated for 1 hr by Topcount scintillation counting method
[4] = biological target: T1, G-protein coupled receptor 84; assay: Agonist activity at GPR84 (unknown origin) expressed in HEK293T cells expressing beta-arrestin 2-nanoluciferase incubated for 5 mins by beta-arrestin recruitment based BRET assay
[5] = Dissociation constant, pKa of compound by UV spectrophotometric analysis
[6] = biological target: T1, G-protein coupled receptor 84; assay: Displacement of [3H]140 from GPR84 (unknown origin) expressed in Flp-In-T-REx-293 cells transfected with GalphaI incubated for 1 hr by liquid scintillation spectrometry analysis
[7] = Solubility in PBS at pH 7.4 incubated for 24 hrs by HPLC analysis

T1 sequence (Q9NQS5 whole entry): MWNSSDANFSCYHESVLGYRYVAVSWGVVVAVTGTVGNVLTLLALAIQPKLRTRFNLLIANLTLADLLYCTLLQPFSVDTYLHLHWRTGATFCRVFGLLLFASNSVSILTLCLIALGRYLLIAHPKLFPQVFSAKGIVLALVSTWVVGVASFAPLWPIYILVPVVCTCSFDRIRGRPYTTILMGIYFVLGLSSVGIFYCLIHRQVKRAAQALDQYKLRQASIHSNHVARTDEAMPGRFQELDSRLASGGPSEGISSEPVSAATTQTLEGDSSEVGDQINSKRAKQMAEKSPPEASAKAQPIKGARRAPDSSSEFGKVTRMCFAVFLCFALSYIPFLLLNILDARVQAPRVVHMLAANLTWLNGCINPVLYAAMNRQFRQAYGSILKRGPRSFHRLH

Row | Compound | EC50 [1] | EC50 [2] | other results
1 | O=c1cc(O)cc(CCCOc2ccccc2)[nH]1 | 4.17 nM |  | 
2 | CCCCCCCC#Cc1cc(O)cc(=O)[nH]1 | 5.75 nM | 14.5 nM | EC50 [3]: 24 nM; EC50 [4]: 550 nM
3 | Cc1ccc(CCc2cc(O)cc(=O)[nH]2)cc1 | 13.8 nM |  | 
4 | CCCCCCCOc1cc(O)cc(=O)[nH]1 | 1.32 nM |  | 
5 | CCCCCCCc1cc(O)cc(O)n1 | 0.0468 nM |  | pKa [5]: 6.68
6 | CCCCCCCCNc1cc(O)cc(=O)[nH]1 | 3.31 nM |  | 
7 | O=c1cc(O)cc(CCc2cccc(-c3ccccc3)c2)[nH]1 | 4270 nM |  | 
8 | CCCCCCCCCCc1cc(O)cc(=O)[nH]1 | 0.24 nM |  | 
9 | O=c1cc(O)cc(-c2ccc(Oc3ccccc3)cc2)[nH]1 | 0.912 nM | 1.26 nM | Ki [6]: 14.8 nM; EC50 [3]: 4.27 nM; EC50 [4]: 209 nM
10 | CCCCCCCCc1cc(O)cc(O)n1 | 0.0275 nM |  | 
11 | CCCCCCCCCCCc1cc(O)cc(=O)[nH]1 | 0.427 nM |  | 
12 | CCCCCc1ccc(-c2cc(O)cc(=O)[nH]2)cc1 | 12.6 nM | 19.5 nM | EC50 [3]: 26.3 nM; EC50 [4]: 2630 nM
13 | CC(C)(C)c1ccc(CCc2cc(O)cc(=O)[nH]2)cc1 | 2.95 nM |  | 
14 | O=c1cc(O)cc(CCc2ccc(OC(F)(F)F)cc2)[nH]1 | 11 nM |  | 
15 | O=c1cc(O)cc(-c2ccc(Oc3cncnc3)nc2)[nH]1 | 102 nM |  | 
16 | CCCc1ccc(CCc2cc(O)cc(=O)[nH]2)cc1 | 0.302 nM | 0.331 nM | Ki [6]: 13.5 nM; EC50 [3]: 1.2 nM; EC50 [4]: 214 nM
17 | Cc1nnc(-c2ccc(-c3cc(O)cc(=O)[nH]3)cc2)o1 | 11700 nM |  | 
18 | CCCCCCCCCc1cc(O)cc(O)n1 |  |  | solubility at 24 h [7]: 10 µM (≈ 2.37 µg/mL)
19 | CCCC(=O)NCCCCc1cc(O)cc(=O)[nH]1 | 23400 nM |  | 
20 | CCOc1ccc(CCc2cc(O)cc(=O)[nH]2)cc1 | 44.7 nM | 15.8 nM | EC50 [3]: 33.1 nM; EC50 [4]: 7240 nM
21 | CCCCc1ccc(-c2cc(O)cc(O)n2)cc1 | 25.7 nM | 18.2 nM | pKa [5]: 8.04; EC50 [3]: 63.1 nM; EC50 [4]: 1620 nM
22 | CCCc1ccc(COc2cc(O)cc(=O)[nH]2)cc1 | 3.24 nM |  | 
23 | O=c1cc(O)cc(-c2ccc(Oc3ccccc3)nc2)[nH]1 | 1.05 nM | 15.8 nM | Ki [6]: 13.8 nM; EC50 [4]: 263 nM
24 | O=c1cc(O)cc(CCc2ccccc2)[nH]1 |  |  | pKa [5]: 6.6
25 | CCc1ccc(CCc2cc(O)cc(=O)[nH]2)cc1 | 4.47 nM |  | 
26 | CC(C)Cc1ccc(CCc2cc(O)cc(=O)[nH]2)cc1 | 12.6 nM | 6.76 nM | EC50 [3]: 12 nM; EC50 [4]: 912 nM
27 | O=C1c2ccccc2C(=O)N1CCCCc1cc(O)cc(=O)[nH]1 | 3240 nM |  | 
28 | O=c1cc(O)cc(CCc2ccc3c(c2)Cc2ccccc2-3)[nH]1 | 5010 nM | 1660 nM | EC50 [3]: 525 nM
29 | Cc1cccc(CCc2cc(O)cc(=O)[nH]2)c1 | 389 nM |  | 

Reference: ChEMBL document CHEMBL5528068, “Structure-Activity Relationship Studies and Optimization of 4-Hydroxypyridones as GPR84 Agonists” (J Med Chem, 2024)
